Source: patent publication US20220339127A1, “DRUGGABLE TARGET TO TREAT RETINAL DEGENERATION” (The United States of America,as represented by the …, priority 2019, published 2022)
Entries after “also recorded” stand apart in the source; their conditions may differ.

How the values were obtained:
[1] = test system: iPSC-RPE; assay: APOE deposition in POS-fed iPSC-RPE (integrated density); assay type: cell-based, human; conditions: for integrated density of APOE signal, apical / integrated density of APOE signal, basal: 7-days POS feeding
Experimental: (§1) Patient iPSC-RPE were treated daily beginning with the first day of POS feeding with 3 mM metformin (Fan et al., 2015; Kim et al., 2011).
White arrow indicates basal increase in APOE deposits reminiscent of APOE-rich drusen deposits in AMD (Johnson et al., 2011). […] Image J was used to draw a rectangular region of interest around the apical and basal APOE-positive staining to quantify the localized mean integrated intensity and the data is summarized in FIG. 18d.

[2] = test system: L-ORD patient RPE; assay: Apical beta-hydroxybutyrate (B-hB) secretion by RPE; assay type: cell-based, human
Experimental: The inventors have hypothesized that increasing fatty acid oxidation and ketone body formation (B-hB) may lead to decreased lipid accumulation in the sub retinal space.
(§2) Metformin treatment consisted of 3 mM metformin added to the apical and basal media for 1½- 2 weeks.

[3] = test system: patients with AMD; assay: Retrospective cohort study of AMD patients concurrently using metformin; assay type: in vivo, human; conditions: patients ages 50-59, with metformin (n=16); 56 without (n=157)
Experimental: To determine whether there is clinical evidence that metformin could be beneficial in the treatment of AMD, a retrospective cohort study of patients presenting to Kaiser Permanante Medical with AMD was performed to test whether concurrent use of metformin by individuals affected diagnosis.
To determine whether there is clinical evidence that metformin could be beneficial in the treatment of AMD a retrospective cohort study was performed of patients presenting to Kaiser Permanante Medical with AMD to test whether concurrent use of metformin by individuals affected diagnosis.

[4] = Mass-spectrometry analysis of metformin in eyes and plasma of treated animals; assay type: in vivo, mouse; conditions: oral dosing, data not shown
[5] = test system: iPSC-RPE; assay: Cell area of POS-fed iPSC-RPE (ZO-1 staining, REShAPE); assay type: cell-based, human
Excerpt: Accumulating evidence implicates disrupted lipid metabolism as a common pathogenic mechanism in a host of diseases including AMD (Ban et al., 2018; Xu et al., 2018). These metabolic defects are linked to long term health of RPE cells. To determine the consequence of PEDF-R deficiency in RPE cells, L-ORD iPSC-RPE and unaffected siblings were subjected to 7-day photoreceptor outersegment (POS) feeding to exacerbate the high fat-induced epithelial impairment. Concomitantly, it was investigated whether the lipid-lowering effects of metformin, an anti-diabetic drug (Schneider et al., 1990), could reverse RPE dedifferentiation and loss of polarity. Cell size, a key morphological indicator of RPE polarity, was evaluated by staining for ZO-1 (green) to identify cell borders (FIG. 18a) and employing automated image analysis algorithms in REShAPE (a cloud-computing based cell morphometry analyzer) to perform morphometric analysis of RPE cells.
as §1

[6] = test system: Abca4−/− mice; assay: Abca4−/− mouse model, oral metformin, RPE/choroid flat-mount bodipy lipid stain
[7] = test system: iPSC-RPE; assay: VEGF secretion ELISA under normoxia; assay type: cell-based, human; conditions: L-ORD patients, metformin 3 mM for 1½ to 2 weeks
Excerpt: Polarized secretion of cytokines by the RPE is a hallmark of their mature and differentiated state. Under conditions that promote epithelial to mesenchymal transition (EMT), RPE lose their morphology and their secretion becomes mispolarized. Dedifferentiation of the RPE is a frequently proposed mechanism in retinal degenerations such as AMD. Typically VEGF is primarily secreted basally by the RPE. In L-ORD patients, the polarity of VEGF secretion is lost as assessed by ELISA.

[8] = test system: AMPK; assay: Phospho-AMPK ELISA in iPSC-RPE of L-ORD patients and unaffected siblings; assay type: cell-based, human; conditions: L-ORD patient iPSC-RPE, 3 mM metformin, 1½-2 weeks
Experimental: Thus, in FIG. 16b iPSC-RPE were incubated with recombinant CTRP5 globular form (0.2 μg/mL gCTRP5) for 30 min in the presence (+) and absence (−) of serum to evaluate its role in AMPK signaling.
To better elucidate the ADIPOR1-CTRP5 (receptor-ligand) interaction, […] a ligand dose response curve was performed (in serum free media) by exogenously adding increasing concentrations of recombinant full length CTRP5 (FIG. 16c).
AMPK is a sensitive indicator of the cell energy status and is canonically activated by the levels of AMP or ATP (Hardie and Lin, 2017). Therefore, the AMPK activity (in serum free media) of sibling and patient iPSC-RPE under conditions (increased AMP:ATP ratio) known to stimulate AMPK phosphorylation was characterized (FIG. 16d). iPSC-RPE were incubated in serum deprived media for 5 hours (Park et al., 2009) followed by 30 mins exposure to AICAR (an AMP analogue) or BAM15 (a mitochondrial uncoupler to reduce ATP production).
as §2

[9] = test system: iPSC-RPE; assay: VEGF secretion ELISA under hypoxic conditions; assay type: cell-based, human; conditions: for VEGF secretion, apical (Ap) / VEGF secretion, basal (Ba): hypoxic conditions (6h)
Experimental: Hypoxic stress (3% 02, 6h) was employed to determine how this perturbation regulates VEGF secretion in L-ORD patient iPSC-RPE.

[10] = test system: AMPK signaling pathway; assay: Gene expression of AMPK signaling pathway in L-ORD patient RPE; assay type: cell-based, human; conditions: metformin 3 mM for 1½ to 2 weeks
Experimental: Treatment with metformin (3 mM) for 1½ to 2 weeks results in further decrease in some genes but an upregulation in others. […] In the RPE, the PEDF-R plays an important role in fatty acid metabolism.

[11] = test system: L-ORD patient iPSC-RPE; assay: Expression of EMT-related genes in POS-fed L-ORD patient iPSC-RPE; assay type: cell-based, human
Excerpt: POS feeding for 7-days also altered the expression profiles of 85 EMT-related genes in L-ORD patient iPSC-RPE (FIG. 18g).

[12] = test system: Stargardt iRPE; assay: Ceramide levels in POS fed Stargardt iRPE; assay type: cell-based, human
[13] = metformin treated L-ORD patients
[14] = metformin treated unaffected siblings
[15] = L-ORD patient RPE, prior metformin 2 weeks
[16] = untreated or metformin treated unaffected siblings

CN(C)C(=N)N=C(N)N [metformin]
apical and basal APOE deposition ([1]; L-ORD patient RPE treated with metformin during POS feeding): ameliorate the accumulation of APOE-containing basal deposits; also recorded: redistribution of the relative proportions of apical and basal APOE deposition
integrated density of APOE signal, apical [1, 13]: 79.30±37.51
integrated density of APOE signal, basal [1, 13]: 13.58±4.58
integrated density of APOE signal, apical [1, 14]: 119.98±20.36
integrated density of APOE signal, basal [1, 14]: 23.55±6.17
increase in apical B-hB secretion ([2]; L-ORD patient RPE, 3 mM metformin 1½-2 weeks): 25%
beta-hydroxybutyrate apical secretion ([2]; metformin treatment): increased beta-hydroxybutyrate apical secretion
age of onset of nonexudative age-related macular degeneration [3]: 58.5 years of age
amount of metformin in RPE/choroid, retina, and plasma [4]: comparable amount
POS stress-induced enlargement of patient iPSC-RPE ([5]; 3 mM metformin daily from first day of POS feeding): largely prevented the POS stress-induced enlargement
cell area ([5]; L-ORD patient iPSC-RPE, 3 mM metformin during 7 days POS feeding): 117.92±0.96 um
cell area ([5]; unaffected siblings, metformin during 7 days POS feeding): 93.14±1.56 um
hypoglycemia in treated mice ([6]; oral metformin 400 or 800 mg/day): do not lead to hypoglycemia
lipid levels / deposits in RPE/choroid flat-mount ([6]; oral metformin 400 or 800 mg/day for three months): drastically reduced lipid levels; also recorded: reduced deposits
polarized VEGF secretion [7]: rescue of polarized VEGF secretion
polarized VEGF secretion ([7]; listed as Metformin): rescues mispolarized secretion of VEGF
sensitivity of p-AMPK to changes in the AMP:ATP ratio / AICAR [8]: restored sensitivity to AICAR; also recorded: regained sensitivity to AICAR; also recorded: restores the sensitivity
hypoxia-induced apical VEGF secretion ([9]; 1½ week pretreatment with metformin): alleviated the hypoxia-induced apical VEGF secretion
VEGF secretion, apical (Ap) [9, 15]: 0.59±0.09
VEGF secretion, basal (Ba) [9, 15]: 1.8±0.24
VEGF secretion, apical (Ap) [9, 16]: 0.98±0.16
VEGF secretion, basal (Ba) [9, 16]: 1.64±0.33
rescue of mispolarized VEGF secretion ([9]; hypoxic stress (3% O2, 6h), metformin for 24h, data not shown): insufficient to rescue this phenotype
PNPLA2 (PEDF-R) expression [10]: significant increase
number of EMT genes downregulated ([11]; L-ORD patient iPSC-RPE treated with metformin, <4-fold as printed): 42 genes
expression of EMT related genes ([11]; metformin during 7-days POS feeding): suppresses the expression of EMT related genes
reduction of ceramide levels vs vehicle ([12]; 3 mM metformin, wild type POS for 6 consecutive days): 3-4 fold
ceramide accumulation ([12]; POS-Fed Stargardt iRPE treated with metformin): dramatic reduction
